Measurements reported in patent publication US20010049353A1, “Method of using secretin and compositions made therefrom for the treatment of autism and other neurological, behavioral and immunological disorders” (Repligen Corporation, priority 1998, published 2001).
No end group written: not given here.

Assays:
[1] = system: patient, a child with symptoms of autism; assay: Daily transdermal secretin with DMSO in the same patient (Example 2); format: in vivo, human
Method: At the time of this treatment, the patient was […]. Secretin was administered transdermally using pharmaceutical grade dimethyl sulfoxide (DMSO) (generally 99.9% pure) available from Clinic Service Co., Box 2512, Hemet Calif. 92543. The secretin (Secretin-Ferring) was administered daily in a dosage of about 75 CU over a five day period (i.e., about 15 CU daily). For each treatment, about 4 drops of DMSO were placed onto the skin of the patient, about 15 CU of the crystalline secretin was placed onto the DMSO, and the composition was rubbed into the skin.

[2] = system: abnormal opioid peptides in autistic children; conditions: autistic children that responded to casein free and gluten free diet; measured before and after infusion; cited from earlier work
[3] = system: patient, a child with symptoms of autism; assay: Intravenous secretin infusion in a child with symptoms of autism (Example 1); format: in vivo, human
Source text: The present invention will be better understood from the following examples which are given by way of illustration and not by way of limitation. The patient, the same in both examples, is a child with symptoms of autism.
The patient in the present examples developed normally […], with the exception of gastrointestinal problems (i.e., chronic diarrhea and constipation) which began at about six months. At about thirteen months, when whole milk was introduced into their diet, the patient began having reoccurring ear infections. At about fourteen months, the patient appeared to lose the ability to process language, first receptively (at about 14 months) then expressively (at about 16 months). The patient also experienced episodes of “shivers” that appeared to be intermittent seizures.
After consulting with numerous neurologists, pediatricians, child development specialists, audiologists, endocrinologists, allergists, and other medical professionals, no consistent diagnosis had been reached. […] The term autism is used herein for reference purposes only, and this invention is intended to apply to any number of pervasive developmental disorders as well as neurological and immunological disorders.
Further, the patient's secretin cells prior to receiving treatment, measured at a level of 9, are far below the normal limit in the range of 20-70.
When the patient was […], the secretin was administered by way of an infusion as part of an upper gastrointestinal endoscopy. The secretin was used in this diagnostic procedure at the request of the patient's parents, one of which is an inventor of the present invention. The secretin used in this procedure is known as Secretin-Ferring available from Ferring Laboratories, Inc., Suffern, New York (See Appendix A). The secretin was dissolved in a […] of sodium chloride and administered in a dosage of 2 clinical units (CU) per kilogram (kg) body weight by intravenous injection over one minute. […] The diagnostic tests performed on the patient during this procedure also indicated gastric inflammation. […] The following Table I summarizes the improvements observed in the patient within 3 weeks after the infusion of secretin.

In the case of “secretin (HSDGTFTSELSRLRDSARLQRLLQGLV; not fully specified; ends and bridges not checked; UniProt P63298 33-59, looked up) [polypeptide hormone secreted by the mucosa of the duodenum and upper jejunum; used as Secretin-Ferring from Ferring Laboratories]”, the language ([1]; transdermal with DMSO, about 15 CU daily, within about 6 months) is given as “progressed to spontaneous and conversational language”, the “autistic behavioral symptoms on stopping the daily dose” value ([1]; when the daily dose of secretin is stopped) is given as “the autistic behavioral symptoms return” and the “abnormal opioid peptides after secretin infusion” value [2] is given as “the peptides disappeared”. For the same substance, the “time at which the rate of progress appeared to decrease” value ([3]; after first infusion, behavioral improvements continued) was “about 5 weeks”, the “SPECT scan perfusion of the right posterior parietal and right temporal lobes” value ([3]; after the treatment) was “improved” and the rubella titers ([3]; after the treatment, before: 5.8) was 2.3. The “serotonin levels in blood” value ([3]; blood tests after the treatment) was “a rise in serotonin levels”, the pancreatic juice released ([3]; immediately after 2 CU/kg iv over one minute, usual rate 1-2 ml/min) was “approximately 10 ml/min” and the “result of second and third infusions” value ([3]; second infusion about 9 months after the first, third about three months after the second) was “achieved the same results”. The spinning episodes ([3]; within 3 weeks after infusion, before: 1-2 times/week) was “No spinning episodes”, the toilet training ([3]; within 3 weeks after infusion, before: diapers only) was “Completely potty trained” and the “eye contact, share of the time” value ([3]; within 3 weeks after infusion, before: minimal eye contact) was “Eye contact 75% of the time”. For the same substance, the “connections made between language and objects” value ([3]; within 3 weeks after infusion, before: no apparent connections) was “Many connections made between”, the words spoken ([3]; within 3 weeks after infusion, before: two words) was 100's of words-will repeat some and the interaction with videos ([3]; within 3 weeks after infusion, before: watch videos) was “Now, gets “involved” interactively”. For the same substance, the water consumption ([3]; within 3 weeks after infusion, no change, before: approximately 50 cups per day) was “change approximately 50 cups per cups per day” and the “chronic abnormal bowel movements” value ([3]; within days after administration, no change in diet) was “became normal”.
